Measurements taken from patent US12486256B2, “Crystal forms of crenolanib and methods of use thereof” (Arog Pharmaceuticals, Inc., priority 2020, dated 2025).

Key:
Type in all cases: physicochemical
[1] = Competitive slurry, thermodynamic stability of crystalline forms; conditions: competitive slurry conditions, Form III seeds present; monobenzenesulfonate
[2] = Dynamic Vapor Sorption (DVS), hygroscopicity of polymorphic forms; conditions: for form change during DVS cycling / post-DVS (XRPD): XRPD of retained solid
Experimental: Dynamic Vapor Sorption (DVS) was used to determine the hygroscopicity of stable polymorphic forms. Approximately 10-20 milligrams of sample was placed in to a mesh vapor sorption balance pan and loaded into an intrinsic dynamic vapor sorption balance by Surface Measurement Systems. The sample was subjected to ramping profile from 40-90% relative humidity (RH) at 10% increments, maintain the sample at each step until as table weight had been achieved (dm/dt 0.0004%, minimum step length 30 minutes, maximum step length 500 minutes) at 25° C. After completion of the sorption cycle, the sample was dried using the same procedure to 0% RH and then a second sorption cycle back to 40% RH. Two cycles were performed. The weight change during the sorption/desorption cycles were plotted, allowing for the hygroscopic nature of the sample tot be determined. XRPD was then carried out on any solid retained to determine if there was change between polymorphic forms during the process.

[3] = TGA/DSC, thermal degradation; conditions: 10° C./min
Experimental: Thermogravimetric Analysis/Differential Scanning calorimetry (TGA/DSC) was used to determine the phase transition and degradation points as well as the hydrated/solvated states of the various polymorphic forms identified. Approximately 5-10 milligrams of material was added into a pre-tared open aluminum pan and loaded into a TA Instruments SDT 650 Auto-Simultaneous DSC and held at room temperature. The sample was then heated at a rate of 10° C./min from 30° C. to 400° C. during which time the change in sample weight was recorded along with the heat flow response (DSC). Nitrogen was used as the sample purge gas, at a flow rate of 200 cm^3/min. Skilled artisans will appreciate that ambient laboratory conditions may cause slight variability in these readings.

[4] = Solubility in aqueous solutions; conditions: aqueous solutions at neutral pH
[5] = DVS, 25° C., monobenzenesulfonate
[6] = DVS at 90% relative humidity, 25° C., monobenzenesulfonate

| form change during DVS cycling / post-DVS (XRPD) ([2]; monobenzenesulfonate) | hygroscopicity [2, 5] | onset of thermal degradation [3] | mass uptake [2, 6] | onset of thermal degradation ([3]; monobenzenesulfonate) | mass uptake ([2]; DVS, desolvated form, between 0% and 10% humidity) | mass loss (desolvation) ([2]; DVS, during the first cycle) | SMILES | thermodynamic stability / form conversion [1] | solubility relative to other forms [4] |
| --- | --- | --- | --- | --- | --- | --- | --- | --- | --- |
| No form change | non-hygroscopic | – | – | – | – | – | CC1(COc2ccc3c(c2)ncn3-c2ccc3cccc(N4CCC(N)CC4)c3n2)COC1.O=S(=O)(O)c1ccccc1 [Form I, 1-[2-[5-[(3-Methyl-3-oxetanyl)methoxy]-1H-benzimidazol-1-yl]-8-quinolinyl]-4-piperidinamine monobenzenesulfonate] | will convert to Form III | – |
| No form change | slightly hygroscopic | 165 °C | approximately 1.5% | – | – | – | CC1(COc2ccc3c(c2)ncn3-c2ccc3cccc(N4CCC(N)CC4)c3n2)COC1.O=S(=O)(O)c1ccccc1 [Form II, 1-[2-[5-[(3-Methyl-3-oxetanyl)methoxy]-1H-benzimidazol-1-yl]-8-quinolinyl]-4-piperidinamine monobenzenesulfonate] | – | more soluble in aqueous solutions at neutral pH than the anhydrous Forms I and III |
| No form change | slightly hygroscopic | – | approximately 1.5% | – | – | – | CC1(COc2ccc3c(c2)ncn3-c2ccc3cccc(N4CCC(N)CC4)c3n2)COC1.O=S(=O)(O)c1ccccc1 [Form III, 1-[2-[5-[(3-Methyl-3-oxetanyl)methoxy]-1H-benzimidazol-1-yl]-8-quinolinyl]-4-piperidinamine monobenzenesulfonate] | most thermodynamically stable crystalline form | – |
| converts to the hemi-hydrated Form II | hygroscopic | – | – | 241 °C | 1.5% | 9.4% | CC1(COc2ccc3c(c2)ncn3-c2ccc3cccc(N4CCC(N)CC4)c3n2)COC1.O=S(=O)(O)c1ccccc1 [Form IV, 1-[2-[5-[(3-Methyl-3-oxetanyl)methoxy]-1H-benzimidazol-1-yl]-8-quinolinyl]-4-piperidinamine monobenzenesulfonate] | – | – |
